Assays:
SCD5 = target: T1, SCD5 (Homo sapiens, UniProt Q86SK9); experiment: Growth inhibition of humanized yeast strain expressing SCD5 as sole desaturase; assay type: cell-based; conditions: humanized yeast strain expressing SCD5
T1 construct: host or cells: S. cerevisiae ole1Δ strain (W303 pdr1Δ pdr3Δ background), plasmid pRS316 with TDH3 promoter and CYC1 terminator
T1 sequence (Q86SK9 1-330): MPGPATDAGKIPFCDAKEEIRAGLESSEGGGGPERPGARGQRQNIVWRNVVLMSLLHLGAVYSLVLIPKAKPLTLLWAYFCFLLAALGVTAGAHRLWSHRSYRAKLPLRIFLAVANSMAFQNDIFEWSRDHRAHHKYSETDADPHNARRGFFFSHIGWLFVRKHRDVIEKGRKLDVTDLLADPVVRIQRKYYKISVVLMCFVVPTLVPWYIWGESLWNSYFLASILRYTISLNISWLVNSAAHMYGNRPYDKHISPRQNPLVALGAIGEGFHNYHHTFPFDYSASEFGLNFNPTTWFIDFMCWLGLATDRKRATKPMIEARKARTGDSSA
Summary of the method: (§1)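 Yeast ole1Δ strain (W303 pdr1Δ pdr3Δ background) carrying plasmid-borne Ole1, SCD1 or SCD5 as sole desaturase was grown in uracil-lacking media, pre-cultured in raffinose for 6 h, then seeded in galactose medium with compound in DMSO. Growth was read as OD600 after 30° C. incubation: 24 h for Ole1, 40 h for SCD1/SCD5.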

[1] = system: yeast strains expressing the human α-synuclein; experiment: Yeast α-synuclein toxicity rescue assay (OD600 growth); conditions: 40 h; for EC50: read-out: α-Syn EC50; for Emax: read-out: α-Syn Emax
SCD1 = target: T2, SCD1 (Homo sapiens, UniProt O00767); experiment: Growth inhibition of humanized yeast strain expressing SCD1 as sole desaturase; assay type: cell-based; conditions: humanized yeast strain expressing SCD1
T2 construct: host or cells: S. cerevisiae ole1Δ strain (W303 pdr1Δ pdr3Δ background), plasmid pRS316 with TDH3 promoter and CYC1 terminator
T2 sequence (O00767 1-359): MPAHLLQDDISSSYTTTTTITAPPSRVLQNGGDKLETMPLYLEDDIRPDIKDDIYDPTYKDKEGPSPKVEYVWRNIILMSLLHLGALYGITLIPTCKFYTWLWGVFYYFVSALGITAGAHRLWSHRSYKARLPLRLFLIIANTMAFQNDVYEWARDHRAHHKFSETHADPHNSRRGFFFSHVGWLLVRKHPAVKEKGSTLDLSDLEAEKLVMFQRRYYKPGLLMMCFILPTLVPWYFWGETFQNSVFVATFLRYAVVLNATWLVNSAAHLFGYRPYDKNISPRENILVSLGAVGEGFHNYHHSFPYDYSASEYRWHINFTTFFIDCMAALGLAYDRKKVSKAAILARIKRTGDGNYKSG
Summary of the method: as §1

Ole1 = target: T3, Ole1 (Saccharomyces cerevisiae, UniProt P21147); experiment: Growth inhibition of yeast strain expressing Ole1 as sole desaturase; assay type: cell-based; conditions: yeast strain expressing Ole1 as sole desaturase
T3 construct: expressed in transfected cells; host or cells: S. cerevisiae ole1Δ strain (W303 pdr1Δ pdr3Δ background), plasmid pRS316 with TDH3 promoter and CYC1 terminator
T3 sequence (P21147 1-510): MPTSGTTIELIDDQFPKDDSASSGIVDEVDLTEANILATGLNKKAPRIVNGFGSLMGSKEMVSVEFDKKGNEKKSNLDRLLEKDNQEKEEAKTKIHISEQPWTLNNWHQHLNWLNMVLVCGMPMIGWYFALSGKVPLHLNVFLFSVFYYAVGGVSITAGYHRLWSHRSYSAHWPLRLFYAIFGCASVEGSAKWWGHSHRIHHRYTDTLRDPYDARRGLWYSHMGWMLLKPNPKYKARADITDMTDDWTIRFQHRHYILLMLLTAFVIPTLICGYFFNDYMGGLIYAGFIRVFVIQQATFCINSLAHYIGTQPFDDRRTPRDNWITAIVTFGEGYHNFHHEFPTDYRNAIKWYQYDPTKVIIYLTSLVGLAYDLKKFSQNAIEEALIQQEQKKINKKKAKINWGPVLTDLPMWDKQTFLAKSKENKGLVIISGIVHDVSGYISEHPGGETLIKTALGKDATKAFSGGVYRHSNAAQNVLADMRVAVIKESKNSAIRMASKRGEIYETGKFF
Summary of the method: as §1

[2] = system: yeast strains expressing the human ApoE4; experiment: Yeast ApoE4 toxicity rescue assay (OD600 growth); conditions: 24 h; for Emax: read-out: ApoE4 Emax; for EC50: read-out: ApoE4 EC50
Text: The induced expression of α-synuclein and ApoE4 confers cytotoxicity, thus enabling the identification of compounds that can restore cell viability. This instantaneous/synchronous induction of α-synuclein and ApoE4 can be achieved due to the following expression control. In glucose-containing media, gene expression from the GAL1 promoter is ‘off’ and actively repressed by additional epigenetic factors. In raffinose, expression is ‘off’, but the promoter not actively repressed. Upon transition to galactose-containing media, the promoter is instantaneously turned ‘on’ to achieve robust and synchronous induction of α-synuclein or ApoE4 expression. This highly regulated induction provides a robust window for the determination of both efficacy (amplitude of protective effect) and potency (concentration of protective effect) of cytoprotective compounds.
Re-suspended compound stocks were subsequently arrayed into 384 well compound plates using automated pipetting. All other wells not receiving stock compound were filled with 10 μL of 100% DMSO using an automated plate filler (Multidrop Combi). An 11 point, 2-fold serial dilution was then performed using the robotic platform. Compound assay plates were covered with foil and stored at −20° C. until use.
Each strain was handled according to standard protocols and cultured in media composed of CSM (complete synthetic media), YNB (yeast nitrogenous base), and a 2% (w/v) carbon source (either glucose, raffinose, or galactose).
In a standard yeast assay, a single-use aliquot of cells was thawed on ice and diluted into CSM/glucose (5 mL). Cultures were grown for 8 hours at 30° C. This pre-growth enables the yeast to exit the thaw and begin to grow without expressing aSyn or ApoE4. After 8 hours, cell density (OD600) was determined and cultures diluted to an OD600 of 0.01 in CSM/raffinose for an overnight culture phase at 30° C. During this period, the active glucose repression of the GAL1 promoter was relieved; however, expression of the α-Syn/ApoE4 genes were not yet induced. After ˜16 hours of growth, cultures attain an OD600 of 0.4-0.8 and were ready to apply to assay plates containing compound.
Compound profiling assays were executed in clear-bottom 384 well plates. First, compound plates were thawed at room temperature for 45′, centrifuged at 1,000×g for 1 minute, and the foil removed. Clear 384 well assay plates were then filled with 15 μL of CSM/galactose. […] The pin tool was washed iteratively with both 50% DMSO and 100% ethanol between each assay plate. After delivering compound to each assay plate, the overnight CSM/raffinose aSyn or ApoE4 cultures were added at a 2X cell density (0.04 for aSyn and 0.08 for ApoE4) in CSM/galactose to achieve a final assay OD600 of 0.02 and 0.04 for aSyn and ApoE, respectively. The cultures (15 μL per well) were then dispensed to the compound -containing 384 well assay plates using an automated plate filler. Plates were incubated in a humidified 30° C. incubator for 40 or 24 hours for aSyn and ApoE4, respectively. The ODsoo of each assay plate was then read with a microplate reader (e.g., Perkin Elmer Envision).
The efficacy and potency of compounds were calculated according to the following. Raw data (OD600 values) were first background corrected to account for OD600 contributed by the plate and media itself. The efficacy (percent above DMSO, herein referred to as “Emax”) was calculated according to the equation: (Experimental well−DMSO control well)/(DMSO control well)*100. […] Normalized dose-response data was fit with a logistic regression curve using Spotfire (TIBCO), or similar curve-fitting software package. EC50 values were then reported along with EMax to provide both efficacy and potency measures for each analog and enable further compound design.

| SMILES | IC50 (SCD5) [µM] | EC50 [1] [µM] | Emax [1] [%] | IC50 (SCD1) [µM] | IC50 (Ole1) [µM] | Emax [2] [%] | EC50 [2] [µM] | SCD5 % Max Inhibition (SCD5) [%] | SCD1 % Max Inhibition (SCD1) [%] | OLE1 % Max Inhibition (Ole1) [%] |
| --- | --- | --- | --- | --- | --- | --- | --- | --- | --- | --- |
| CCOc1ccc(-c2noc(C3CCN(C(=O)NCCc4ccccc4)CC3)n2)cc1OC [compound 83] | > 45 | 9.31 | 151 | > 45 | > 45 | 567 |  |  |  |  |
| COc1ccc(-c2noc(C3CCN(C(=O)CNC(=O)c4ccc(C)cc4)CC3)n2)cc1OC [compound 13] | > 45 | 0.058 | 712 | > 45 | > 45 | 837 | 0.368 |  |  |  |
| CCOc1ccc(-c2noc(N3CCC(C(=O)N4CCCC(c5ccccc5)C4)CC3)n2)cc1OC (stereo not drawn) [compound 100] | > 45 | 1.19 | 385 | 32.8 | > 45 | 651 | 2.11 |  |  |  |
| COc1ccc(-c2noc(C3CCN(C(=O)CNC(=O)c4cccc(C)c4)CC3)n2)cc1OC [compound 14] | 27.5 | 1.16 | 463 | > 45 | > 45 | 771 | 1.83 |  |  |  |
| COc1ccc(-c2noc(C3CCN(C(=O)C4CC(=O)N(c5ccc(C)c(C)c5)C4)CC3)n2)cc1 (stereo not drawn) [compound 20] | > 45 | 15.1 | 181 | > 45 | > 45 | 529 | 16.2 |  |  |  |
| COc1ccc(-c2noc(C3CCN(C(=O)[C@@H]4CC(=O)N(c5ccc(C)c(C)c5)C4)CC3)n2)cc1 (single isomer, unassigned) [Compound 63] | > 45 | 17.2 | 68 | 33.7 | > 45 | 250 | 13.4 | 9.39 | 62.04 | 101.06 |
| COc1ccc(-c2noc(C3CCN(C(=O)[C@H]4CC(=O)N(c5ccc(C)c(C)c5)C4)CC3)n2)cc1 [Compound 64] | > 45 | 13.7 | 228 | > 45 | > 45 | 330 | 15.3 | 42.05 | 32.39 | 115.95 |
| COc1ccc(-c2noc(C3CCN(C(=O)Cc4ccccc4)CC3)n2)cc1OC [Compound 44] | > 45 | 10.9 | 579 | > 45 | > 45 | 676 | 13.3 | 10.99 | 17.96 | 93.69 |
| Cc1ccc(-c2noc(C3CCN(C(=O)[C@H]4CC(=O)N(c5ccc(C)c(C)c5)C4)CC3)n2)cc1 (single isomer, unassigned) [Compound 61] | > 45 | 19.7 | 229 | > 45 | 40.9 | 465 | 19.4 | 13.18 | 2.37 | 71.50 |
| CCOc1ccc(-c2noc(C3CCN(C(=O)N4CCCCC4)CC3)n2)cc1OC [Compound 53] | > 45 | 6.6 | 81 | > 45 | > 45 | 296 | 16.6 | 2.94 | 79.96 | 98.51 |
| CCOc1ccc(-c2noc(C3CCN(C(=O)CNC(=O)c4ccccc4)CC3)n2)cc1Br [compound 99] | > 45 | 1.03 | 209 | > 45 | > 45 | 663 | 2.75 |  |  |  |
| COc1cccc(-c2noc(C3CCN(C(=O)C4CC(=O)N(c5ccc(C)c(C)c5)C4)CC3)n2)c1 (stereo not drawn) [compound 21] | > 45 |  | 276 | 39.9 | > 45 | 447 |  |  |  |  |
| COc1ccc(-c2csc(C3CCN(C(=O)CNC(=O)c4ccccc4)CC3)n2)cc1OC [Compound 38] | 41 | 3.3 | 336 | > 45 | > 45 | 750 | 6.01 | 64.24 | 72.81 | 20.26 |
| CC(C)c1ccc(C(=O)N2CCC(c3noc(-c4cccc(F)c4)n3)CC2)cc1 [Compound 52] | > 45 | 9.06 | 82 | > 45 | > 45 | 154 | 14.5 | −1.01 | 1.65 | 11.78 |
| COc1ccc(-c2noc(C3CCN(C(=O)CNC(=O)c4ccccc4Cl)CC3)n2)cc1OC [compound 25] | 39.4 | 0.751 | 619 | > 45 | > 45 | 889 | 1.85 |  |  |  |
| CCN1C(=O)COc2ccc(-c3noc(C4CCN(C(=O)C5CC(=O)N(c6ccc(C)c(C)c6)C5)CC4)n3)cc21 (stereo not drawn) [compound 4] | > 45 | 8.43 | 59 | > 45 | > 45 | 76 | 11.8 |  |  |  |
| COc1ccc(-c2noc(C3CCN(C(=O)CNC(=O)c4ccc(C)c(C)c4)CC3)n2)cc1OC [compound 15] | > 45 | 1.71 | 628 | > 45 | > 45 | 866 | 3.63 |  |  |  |
| COc1ccc(-c2noc(N3CCC(C(=O)N4CCCCC4)CC3)n2)cc1OC [compound 6] | 41.1 | 10.2 | 460 | > 45 | 39.1 | 815 | 15.1 |  |  |  |
| Cc1cccc(-c2nc(C3CCN(C(=O)C4CC(=O)N(c5ccc(C)c(C)c5)C4)CC3)no2)c1 (stereo not drawn) [Compound 51] | > 45 | 10.9 | 137 | > 45 | > 45 | 286 |  | 6.59 | 76.83 | 102.56 |
| Cc1ccc(-c2noc(C3CCN(C(=O)[C@@H]4CC(=O)N(c5ccc(C)c(C)c5)C4)CC3)n2)cc1 [Compound 62] | > 45 | 21.7 | 204 | > 45 | > 45 | 430 | 21.4 | 5.75 | 28.73 | 86.77 |
| CCOc1ccc(-c2noc(C3CCN(C(=O)[C@@H]4CC(=O)N(c5ccccc5)C4)CC3)n2)cc1OC [compound 86] | 33.3 | 0.018 | 772 | > 45 | > 45 | 633 | 0.064 |  |  |  |
| COc1ccc(-c2noc(C3CCN(C(=O)CNC(=O)c4ccc(Cl)cc4)CC3)n2)cc1OC [compound 27] | > 45 | 0.059 | 589 | > 45 | > 45 | 761 | 0.39 |  |  |  |

Source: US11873298B2, “Compounds and uses thereof” (JANSSEN PHARMACEUTICA NV, priority 2017, dated 2024)
